Measured values taken from patent US8795740B2, “Drip tray tablet” (Novapharm Research (Australia) Pty Ltd, priority 2003, dated 2014).

Assay: preservation of enzyme activity in the tablet in use
Type: physicochemical
Conditions: in the non-dissolved part of the tablet
From the text: A preferred boron compound is borax, which the present inventors have found acts to preserve the enzyme activity in use for at least 3 months in the non-dissolved part of the tablet. The present invention thus provides matching between the enzyme activity and tablet dissolution parameters.

Q: With O=BOB(O)OB(O)OB=O [borax, Borax] as the compound, how does the “time for which enzyme activity is preserved in use” value read?
A: Its value is “at least 3 months”.
